Among the data in PubChem BioAssay AID1159558 (GlaxoSmithKline (GSK), 2015) are IC50 values, retold here.

The source made the active and inactive calls.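 How the source made its calls: active means IC50 against T. cruzi CYP51 below a set limit; inactive means the rest.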 A value given as a limit tells only on which side of the number the result lay.

In this experiment the target is Sterol 14-alpha demethylase (Trypanosoma cruzi (strain CL Brener)) (UniProt Q7Z1V1). Kind of experiment: T. cruzi sterol 14-alpha demethylase inhibition – biochemical, recombinant enzyme, mechanism study for T. cruzi antiparasitic project, dose response (AID 1159558).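 Further: enzyme in bacterial membranes with Anopheles gambiae CYP reductase and cytochrome b5 partners.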 Conditions: recombinant T. cruzi CYP51, BOMCC fluorescence.
Sterol 14-alpha demethylase (Trypanosoma cruzi (strain CL Brener)), sequence (Q7Z1V1 whole entry, looked up): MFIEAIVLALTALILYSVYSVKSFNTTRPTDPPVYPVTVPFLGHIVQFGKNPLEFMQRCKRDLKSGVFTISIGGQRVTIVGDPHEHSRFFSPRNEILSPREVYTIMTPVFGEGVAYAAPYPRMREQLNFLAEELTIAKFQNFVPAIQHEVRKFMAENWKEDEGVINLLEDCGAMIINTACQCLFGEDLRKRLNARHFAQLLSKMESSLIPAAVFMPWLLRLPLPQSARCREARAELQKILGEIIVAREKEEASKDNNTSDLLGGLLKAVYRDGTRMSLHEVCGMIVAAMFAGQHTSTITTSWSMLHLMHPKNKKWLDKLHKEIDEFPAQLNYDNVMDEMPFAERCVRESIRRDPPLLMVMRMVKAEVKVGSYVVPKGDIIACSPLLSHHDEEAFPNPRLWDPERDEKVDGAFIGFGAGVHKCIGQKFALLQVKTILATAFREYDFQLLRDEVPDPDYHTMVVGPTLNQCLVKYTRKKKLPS
With `CCCn1c(NC(=O)Cc2ccc(Cl)cc2)nc2ccccc21`, the IC50 was > 100 µM (inactive). Regarding `O=C(NCc1ccncc1)c1ccccc1N1CCCN(C(=O)Cc2ccc(F)c(F)c2)CC1`, the IC50 is 0.079 µM.

`CCCc1cc(C(=O)Nc2ncc(-c3cccc(Br)c3)n2C)n[nH]1`: the concentration for half-maximal inhibition (IC50) is 25 µM.

On to `CC(=O)Nc1cccc(Nc2ncnc3nc[nH]c23)c1`, for which the IC50 was > 100 µM (inactive). For the molecule `O=C(c1cccc(Nc2ncc(-c3ccc4c(c3)OCO4)cn2)c1)N1CCSC1`, the half-inhibitory concentration (IC50) was 16 µM. For `COCCn1c(-c2ccc3c(c2)OCO3)cnc1NCc1ccccc1OC`, the IC50 was 5 µM. Turning to `CN(Cc1ccccc1)Cc1nnnn1C1CCN(Cc2ccc(-n3ccnc3)cc2)CC1`, the IC50 was 0.05 µM. On to `O=C(NCCc1ccccc1Cl)c1cccn1-c1cccnc1`, for which the IC50 is 0.079 µM. Under `Cc1cc(C)nc(N2CCC(N(Cc3cccnc3)C(=O)c3cccc(C#N)c3)CC2)n1` stands 0.13 µM; under `CC(=O)NC1(c2ccccc2)CCN(CC(=O)Nc2ccccc2-c2ccccc2)CC1`, 50 µM; under `O=S(=O)(NCC(c1cccnc1)N1CCN(c2ccccc2F)CC1)c1ccc(F)cc1` (stereo unspecified), 0.079 µM. Under `COc1ccc(Nc2nccc(N(C)c3n[nH]c4c(F)cccc34)n2)cc1S(C)(=O)=O` stands 32 µM; under `Cc1cc(Br)cc(C(=O)c2c(C(C)C)c(=O)[nH]c(=O)n2Cc2ccnc(N)c2)c1`, 0.016 µM; under `Cc1c(Nc2cc(C3CC3)[nH]n2)ccc(C#N)c1Cl`, 20 µM. As for `Cc1nn(C)c(Cl)c1CN(Cc1cccnc1)Cc1ccsc1`, the IC50 was 0.063 µM. In the case of `Cc1ccc(S(=O)(=O)Cn2nnnc2C(c2cccnc2)N2CCN(c3ccccc3)CC2)cc1` (stereo unspecified), the 50% inhibitory concentration (IC50) was 0.2 µM. Then `CN1CCCN(C(=O)c2ccc(N3CCCC3)cc2Cl)CC1`, with > 100 µM (inactive); and `NC(=O)c1ncc(N[C@@H]2CCCNC2)nc1Nc1cccc(Cl)c1`, with > 100 µM (inactive); and `Cn1nc([N+](=O)[O-])nc1N1CCCCC1`, with > 100 µM (inactive).

For `CCCc1cc(N)nc(-c2cc(CCC)cc(N)n2)c1`, the IC50 is > 100 µM (inactive). For the molecule `Cc1nn(-c2nc3ccccc3s2)c2c1C(c1ccc(OCC(N)=O)cc1)SCC(=O)N2` (stereo unspecified), the IC50 is > 100 µM (inactive).

Regarding `c1ccc(-c2nc(NC3CCCCC3)cc(C3CC3)n2)nc1`, the IC50 was > 100 µM (inactive). Consider `O=C(Nc1nc(-c2ccccn2)cs1)c1ccccc1-n1cnnn1`, for which the IC50 was > 100 µM (inactive).

On to `COc1ccccc1C1CC(c2ccc(NS(C)(=O)=O)cc2)=NN1C(=O)c1cccs1` (stereo unspecified), for which the half-maximal inhibitory concentration (IC50) was 25 µM.

As to `O=C(NC(CO)c1ccc(F)cc1)c1ccc(-c2c[nH]c3ncccc23)s1` (stereo unspecified), the half-inhibitory concentration (IC50) is 1.3 µM.

Regarding `O=C(CN(Cc1ccccn1)Cc1ccccn1)NCc1ccc2c(c1)OCO2`, the half-inhibitory concentration (IC50) was 100 µM. Then `O=C(N1CCc2ccccc2CC1)C1(C(=O)N2CCC(n3c(=O)[nH]c4ncccc43)CC2)CC1`, with 0.32 µM; and `CCc1cccc(CC)c1-n1c(SCC(=O)N2CC(=O)Nc3ccccc32)nnc1-c1cccnc1`, with 3.2 µM. For `Cc1ccc(NC(C)C(=O)Nc2ccc(C#N)cc2)cc1S(=O)(=O)N1CCCCC1` (stereo unspecified), the half-maximal inhibitory concentration (IC50) was 16 µM. Then `NS(=O)(=O)c1ccc(Nc2ncc3cccc(OC4CCNCC4)c3n2)cc1`, with > 100 µM (inactive). Then `CNc1cncc(C2CCCN2C(=O)Cc2coc3cc(C)ccc23)n1` (stereo unspecified), with 0.025 µM. Regarding `CCN(C)Cc1ccc(N2CCC(NS(=O)(=O)c3ccc4c(c3)CCO4)CC2)nc1`, the IC50 was > 100 µM (inactive).

Regarding `CC1CCCN(S(=O)(=O)c2ccc(C(=O)Nc3nc(-c4ccccn4)cs3)cc2)C1` (stereo unspecified), the IC50 was 2.5 µM. Under `Cc1ccccc1NS(=O)(=O)c1ccc2[nH]cc(C(=O)NC3CCCC(C)C3C)c(=O)c2c1` (stereo unspecified) stands 5 µM; under `O=C1CCCCCC1(Cc1cnc[nH]1)c1ccc(Cl)cc1Cl` (stereo unspecified), 0.1 µM. Then `O=C(Nc1nccs1)c1ccccc1Cn1cc([N+](=O)[O-])cn1`, with > 100 µM (inactive).

By IC50 is commonly meant the midpoint of a concentration-inhibition curve.
